Source: the NIST ThermoML archive (doi:10.1016/j.tca.2014.07.002)

Assay: xn = mol fraction of the nth substance listed
Settings: 101 kPa, Liquid, x1 = 0.423; for mass density: Buoyancy - hydrostatic balance

O=C([O-])[O-].[Na+].[Na+] [sodium carbonate] + [Cl-].[Na+]
Settings	mass density [kg/m3]	viscosity [mPa·s]
973 K	1830	17.02
1023 K	1810	9.285
1073 K	1800	5.31
1123 K	1760	2.468
1173 K	1730	1.219
1223 K	1720	–
1273 K	1680	–
